# Activity calls are given as the source filed them. The rule behind the calls is not given here.
# Tested on: PC-3
# Assay: Antiproliferative activity against human PC3 cells at 10 to 100 uM after 48 hrs by hemocytometric cell counting method
# Format: functional, cell-based
row,Compound,inhibition
1,O=C(O[C@H]1[C@H](c2c(O)cc(O)c3c2O[C@H](c2ccc(O)c(O)c2)[C@@H](OC(=O)c2cc(O)c(O)c(O)c2)C3)c2c(O)cc(O)cc2O[C@@H]1c1ccc(O)c(O)c1)c1cc(O)c(O)c(O)c1,Active
2,O=C(O[C@@H]1[C@@H](c2c(O)cc(O)c3c2O[C@H](c2ccc(O)c(O)c2)[C@H](O)C3)c2c(O)cc(O)cc2O[C@@H]1c1ccc(O)c(O)c1)c1cc(O)c(O)c(O)c1,Active
3,O=C(O[C@@H]1Cc2c(O)cc(O)c([C@H]3c4c(O)cc(O)cc4O[C@H](c4ccc(O)c(O)c4)[C@@H]3O)c2O[C@@H]1c1ccc(O)c(O)c1)c1cc(O)c(O)c(O)c1,Active
4,O=C(O[C@@H]1[C@@H](c2c(O)cc(O)c3c2O[C@H](c2ccc(O)c(O)c2)[C@H](OC(=O)c2cc(O)c(O)c(O)c2)C3)c2c(O)cc(O)cc2O[C@@H]1c1ccc(O)c(O)c1)c1cc(O)c(O)c(O)c1,Active
5,Oc1cc(O)c2c(c1)O[C@H](c1cc(O)c(O)c(O)c1)[C@@H](O)[C@@H]2c1c(O)cc(O)c2c1O[C@H](c1cc(O)c(O)c(O)c1)[C@@H](O)C2,Active
6,O=C(O[C@@H]1Cc2c(O)cc(O)cc2O[C@@H]1c1cc(O)c(O)c(O)c1)c1cc(O)c(O)c(O)c1,Active
7,O=C(O[C@H]1Cc2c(O)cc(O)c([C@@H]3c4c(O)cc(O)cc4O[C@H](c4ccc(O)c(O)c4)[C@H]3O)c2O[C@@H]1c1ccc(O)c(O)c1)c1cc(O)c(O)c(O)c1,Active
8,O=C(O[C@H]1[C@H](c2c(O)cc(O)c3c2O[C@H](c2ccc(O)c(O)c2)[C@@H](O)C3)c2c(O)cc(O)cc2O[C@@H]1c1ccc(O)c(O)c1)c1cc(O)c(O)c(O)c1,Active

# — ChEMBL document CHEMBL2412981, “Syntheses of procyanidin B2 and B3 gallate derivatives using equimolar condensation mediated by Yb(OTf)3 and their antitumor activities” (Bioorg Med Chem Lett, 2013)
